According to publication PMC9652212 (Clinical Pharmacokinetics, 2022):
Like-named read-outs stand apart in the source and are kept apart here.

Tests used:
CYP3A = details: cited from earlier work
[1] = tested on: pooled human liver microsomes; details: MDZ and efavirenz; cited from earlier work
hepatic CYP3A activity = details: time after (first) perpetrator drug administration
[2] = cited from earlier work
[3] = type: in vivo, human
[4] = oral and i.v. bolus administration
[5] = metabolite in the absence of parent compound, ref Hotz et al. 27
[6] = ref Wiebe et al. 23, Tomalik-Scharte et al. 25
[7] = calculated from model parameters

## O=C1Nc2ccc(Cl)cc2[C@@](C#CC2CC2)(C(F)(F)F)O1 [efavirenz]
CYP3A; 12 h after efavirenz administration, ref Mikus et al. 32
  Increase in MDZ CL: 27%
[1]
  Increase in metabolite formation rates: ~ 1.5 fold
Hepatic CYP3A activity
  Time of maximum CYP3A modulatory effect: 2 to 4 h

## C[C@@H](c1ncncc1F)[C@](O)(Cn1cncn1)c1ccc(F)cc1F [voriconazole]
CYP3A; within 12 h after oral voriconazole, semi-physiological model
  Decrease in hepatic CYP3A activity: 75%
[2]
  Oral bioavailability: > 90%

## Cc1ncc2n1-c1ccc(Cl)cc1C(c1ccccc1F)=NC2 [midazolam]
[2]; [4]
  MDZ CL, reported: 15.2 to 45.0 L/h
  MDZ V, reported: 33.3 to 180 L/h
[3]; human, plasma, intravenous
  Vd: 56.7 L
  clearance: 732 mL/min
[3]; interindividual variability
  IIV of MDZ CL: 21.9 %CV
  IIV of MDZ volume of distribution: 29.9 %CV

## OCc1ncc2n1-c1ccc(Cl)cc1C(c1ccccc1F)=NC2 [1’-OH-MDZ, 1’-hydroxymidazolam]
[2]; [5]
  1’-OH-MDZ CL, reported: 34.4 to 56.7 L/h
  1’-OH-MDZ V, reported: 49.7 to 79.8 L
[2]; [6]
  1’-OH-MDZ CL, reported: 186 to 208 L/h
  1’-OH-MDZ V, reported: 256 to 876 L
[3]; [7]
  Elimination rate constant of 1’-OH-MDZ: 0.880 h⁻¹
  Formation rate constant of 1’-OH-MDZ: 0.712 h⁻¹
[3]; interindividual variability
  IIV of 1’-OH-MDZ CL: 42.0 %CV
[3]; population estimate after metabolic conversion of MDZ
  1’-OH-MDZ CL: 264 L/h
